Assay results: patent US8273769B2, “Phenoxy acetic acid derivatives” (Merck Serono SA, priority 2009, dated 2012)

Assays:
[1] = system: FITC induced contact hypersensitivity in mice; experiment: FITC 1 week model (FITC induced contact hypersensitivity, ear swelling); type: in vivo, Balb/C mice; conditions: oral gavage, 24 h after challenge
From the text: Fluorescein isothiocyanate (FITC) induced contact hypersensitivity (CHS) is a commonly used model for atopic dermatitis (AD). The hapten FITC is a small molecule that is able to elicit an immune response only when attached to a larger carrier such as a protein. It is reactive towards e-amino groups (lysine). The immune response to FITC sensitization and challenge is Th2 cytokine driven (IL-4, IL-5, IL-6, IL-10 and IL-13) and associated with elevated serum IgE levels. The skin inflammation at the site of the challenge is characterized by edema and eosinophil infiltrations.
Female 9 week old Balb/C mice were sensitized on days 0 and 1 with 0.5% FITC in acetone/dibuthylphtalate (A/DBP). One group (sham) was sensitized with A/DBP alone. On day 6 all the mice including the sham group were challenged on the right ear (inner and outer surface) with 0.5% FITC in A/DBP. The mice were treated with the compounds via oral gavage 1 h before and 7 h after the challenge. The baseline ear thickness was measured before the challenge and 24 h after the challenge. At the end of the experiment (24 h after the challenge) the mice were sacrificed. Serum and plasma samples were taken. The challenged ear was excised and stored at −80° C. Compounds of Formula (I) of the present invention were tested at 3, 10 and 30 mg/Kg.

[2] = In vivo pharmacokinetic evaluation in rat; design: species or system Sprague Dawley male rats
Experimental: In order to study the pharmacokinetic (PK) profile of test compounds in vivo, Sprague Dawley male rats or C57BL/6 female mice were dosed intravenously or after oral gavage. For both species, test compounds were dosed in solution at 1 mg/kg for i.v. route (10% ethanol, 10% N,N-dimethylacetamide, 30% propylene glycol, 50% water, v/v) and in suspension at 5 mg/kg (0.5% carboxymethylcellulose suspension, containing 0.25% Tween 20 in water) for oral gavage. PK profile in rat was obtained from 3 animals per dosing route and mouse PK profile was determined from 3 animals for each time points. The volume of administration was 2 mL/kg for i.v. dosing in both species and either 5 mL/kg (rat) or 10 mL/kg (mouse) for oral gavage. Blood samples (100 μL/time point) were collected at 0.083 (5 min), 0.25, 0.5, 1, 4, 7 and 24 hours post-dose for i.v. dosing, and at 0.5, 1, 4, 7 and 24 h for oral dosing, into heparin-Li+ containing tubes. For rats, all blood samples were collected trough a catheter in the carotid artery (placed in the artery the day before the experiment), under light isoflurane anesthesia, and stored on ice until centrifugation and plasma isolation. […] For bioanalysis, samples were processed by protein precipitation (acetonitrile, formic acid 0.1%, addition of 3 volumes) after addition of one internal standard and analysed using a sensitive and selective LC/MS/MS method. An aliquot of the resulting supernatant was subject to LC/MS/MS analysis using a reverse phase column (Waters Xterra, C8, (3.5 μm particle size, 2.1×50 mm) and a short gradient (1 min) from (Solvent A) 85% water, 15% acetonitrile and 0.1% formic acid to (Solvent B) 90% acetonitrile, 10% water and 0.1% formic acid followed by isocratic conditions of Solvent B for 3.5 min at 0.4 mL/min. Column effluent was monitored using a Sciex API 4000 triple quadrupole mass spectrometer with a Turbo V electrospray ion source. Unknown concentrations of test compounds were determined using a calibration curve ranging from 1 to 3000 ng/mL.

[3] = system: OVA-induced lung eosinophilia in mice; experiment: OVA-induced lung eosinophilia in mice; type: in vivo, BALB/c mice; conditions: BAL fluid, oral gavage
Experimental: BALB/c mice (6-8 weeks old) were immunized with ovalbumin (10 μg i.p) on day 0 and 7. In order to elicit a local inflammatory response in the lung, mice were challenged between day's 15-17 with a nebulised solution of ovalbumin (10 μg/ml; De Vilibiss Ultraneb 2000, once daily for 30 min during the 3 days). On each separate day between 15 and 17 each animal received via oral gavage the test compound, at t−1 h and t+7 h with respect to OVA exposure at t=0 h. Eight hours after the final OVA challenge, bronchoalveolar lavage (BAL) was then carried out. Total cell numbers in the BAL fluid samples were measured using a haemocytometer. Cytospin smears of the BAL fluid samples were prepared by centrifugation at 1200 rpm for 2 min at room temperature and stained using a DiffQuik stain system (Dade Behring) for differential cell counts. […]

Row | SMILES | % inhibition of ear swelling (mean ± s.e.m.) ([1]; dose 3 mg/kg) [%] | % inhibition of ear swelling (mean ± s.e.m.) ([1]; dose 10 mg/kg) [%] | % inhibition of ear swelling (mean ± s.e.m.) ([1]; dose 30 mg/kg) [%] | Oral bioavailability [2] [%] | Clearance iv (1 mg/Kg) ([2]; i.v. 1 mg/Kg) [mL/min/kg] | AUC ([2]; male, Sprague Dawley, plasma, oral gavage 5 mg/Kg) [ng·h/mL] | % inhibition eosinophils (mean ± s.e.m.) ([3]; dose 3 mg/kg) [%] | % inhibition total cells (mean ± s.e.m.) ([3]; dose 3 mg/kg) [%] | % inhibition eosinophils (mean ± s.e.m.) ([3]; dose 10 mg/kg) [%] | % inhibition total cells (mean ± s.e.m.) ([3]; dose 10 mg/kg) [%] | % inhibition eosinophils (mean ± s.e.m.) ([3]; dose 30 mg/kg) [%] | % inhibition total cells (mean ± s.e.m.) ([3]; dose 30 mg/kg) [%]
1 | O=C(O)COc1ccc(Cl)cc1C#Cc1ccc2c(c1)S(=O)(=O)c1ccccc1-2 [Example 154, {4-chloro-2-[(5,5-dioxidodibenzo[b,d]thien-3-yl)ethynyl]phenoxy}acetic acid] | 41 ± 9 | 49 ± 9 | 54 ± 17 | – | – | – | – | – | – | – | – | –
2 | CCCS(=O)(=O)c1cccc(C#Cc2cc(Cl)ccc2OCC(=O)O)c1 [Example 17, (4-chloro-2-{[3-(propylsulfonyl)phenyl]ethynyl}phenoxy)acetic acid] | – | – | – | 28 | 6.7 | 3700 | – | – | – | – | – | –
3 | CCCS(=O)(=O)c1ccc(F)c(C#Cc2cc(Cl)ccc2OCC(=O)O)c1 [Example 89, (4-chloro-2-{[2-fluoro-5-(propylsulfonyl)phenyl]ethynyl}phenoxy)acetic acid] | 36 ± 19 | 54 ± 16 | 48 ± 11 | – | – | – | 19 ± 18 | 12 ± 15 | 27 ± 10 | 19 ± 8 | 55 ± 11 | 44 ± 10
4 | CCCS(=O)(=O)c1ccc(C)c(C#Cc2cc(Cl)ccc2OCC(=O)O)c1 [Example 38, (4-chloro-2-{[2-methyl-5-(propylsulfonyl)phenyl]ethynyl}phenoxy)acetic acid] | 23 ± 16 | 56 ± 12 | 52 ± 12 | – | – | – | 29 ± 14 | 21 ± 13 | 54 ± 16 | 42 ± 14 | 81 ± 7 | 67 ± 8
